US6589993B2, “Treating vancomycin-intermediates and multiresistant staphylococci infection with thiamphenicol or a salt thereof” (Zambon Group S.p.A., priority 2000, dated 2003)
≈ marks a conversion by molar mass, not a printed value. Like-named read-outs stand apart in the source and are kept apart here.

Legend:
[1] = test system: S. aureus Met-R multiresistant strains; assay: MIC determination (NCCLS broth microdilution), methicillin-resistant multiresistant S. aureus strains; format: cell-based, Staphylococcus aureus; conditions: Staphylococcus aureus; for MIC: antibiotype Oxa, Ery, read-out: MIC
Description: (§1) The MICs of thiamphenicol and of other antibiotics was obtained by using the method proposed by NCCLS (National Committee for Clinical Laboratory Standards, 1999).
(§2) Various antibiotic concentrations were added to bacteria in exponental growth (final inoculum 5×10^5 […]); dilution in Mb (cation-supplemented Mueller-Hinton broth) and distribution on a microplate by using an automatic diluting machine Biomek 1000 (Beckman, USA). MHb charged with 2% NaCl was used to test the methicillin activity.
(§3) The antibiotic concentration which hinders a visible growth after 18-24 hours of incubation at 37° C., was registered as MIC.
(§4) S. aureus ATCC 29213 was used as quality control strain.

[2] = test system: S. aureus vancomycin-intermediates (VISA) Met-R strains; assay: MIC determination (NCCLS broth microdilution), VISA Met-R strains; format: cell-based, Staphylococcus aureus; conditions: for MIC: antibiotype Oxa, Cip, Clin, Ery
Description: as §1, §2, §3, §4

[3] = Strain 30, Cip, Clin, Gm, SXT, Dox
[4] = Strain 32, Cip, Clin, Gm, SXT, Rif
[5] = Strain 44, Cip, Clin, Gm, Rif, Dox
[6] = Strain 45, Cip, Clin, Gm, Rif, Dox, Fos
[7] = Strain 50, Cip, Clin, Gm, Rif, Dox
[8] = Staphylococcus aureus, Strain 51 VISA, read-out: MIC

## CC[C@H]1OC(=O)[C@H](C)[C@@H](O[C@H]2C[C@@](C)(OC)[C@@H](O)[C@H](C)O2)[C@H](C)[C@@H](O[C@@H]2O[C@H](C)C[C@H](N(C)C)[C@H]2O)[C@](C)(O)C[C@@H](C)C(=O)[C@H](C)[C@@H](O)[C@]1(C)O [Erythromycin, erythromycin]
[1]; Strain 1, Cip, Clin, Gm
  MIC: > 64 µg/mL
[1]; Strain 2, Clin, Fos
  MIC: > 64 µg/mL
[1]; Strain 3, Cip, Clin, Gm
  MIC: > 64 µg/mL
[1]; Strain 4, Cip, Gm
  MIC: > 64 µg/mL
[1]; Strain 5, Cip, Clin
  MIC: > 64 µg/mL
[1]; Strain 6, Clin, Gm
  MIC: > 64 µg/mL
[1]; Strain 7, Cip, Gm
  MIC: > 64 µg/mL
[1]; Strain 8, Cip, Clin
  MIC: > 64 µg/mL
[1]; Strain 9, Cip, Clin, Gm
  MIC: > 64 µg/mL
[1]; Strain 10, Cip, Clin, Gm
  MIC: > 64 µg/mL
[1]; Strain 11, Clin, Rif
  MIC: > 64 µg/mL
[1]; Strain 12, Cip, Clin
  MIC: > 64 µg/mL
[1]; Strain 13, Cip, Clin
  MIC: > 64 µg/mL
[1]; Strain 14, Clin, Cip
  MIC: > 64 µg/mL
[1]; Strain 15, Cip, Clin, Gm
  MIC: > 64 µg/mL
[1]; Strain 16, Cip, Clin
  MIC: > 64 µg/mL
[1]; Strain 17, Cip, Clin
  MIC: > 64 µg/mL
[1]; Strain 18, Cip, Clin, Gm
  MIC: > 64 µg/mL
[1]; Strain 19, Cip, Clin, Gm
  MIC: > 64 µg/mL
[1]; Strain 20, Cip, Clin, Gm
  MIC: > 64 µg/mL
[1]; Strain 21, Cip, Clin, Gm
  MIC: > 64 µg/mL
[1]; Strain 22, Cip, Clin
  MIC: > 64 µg/mL
[1]; Strain 23, Cip, Clin, Gm
  MIC: > 64 µg/mL
[1]; Strain 24, Cip, Clin, Gm
  MIC: > 64 µg/mL
[1]; Strain 25, Cip, Clin, Gm
  MIC: > 64 µg/mL
[1]; Strain 26, Cip, Clin, Fos, Gm
  MIC: > 64 µg/mL
[1]; Strain 27, Cip, Clin, Fos, Gm
  MIC: > 64 µg/mL
[1]; Strain 28, Cip, Clin, Gm
  MIC: > 64 µg/mL
[1]; Strain 29, Clin, Fos
  MIC: > 64 µg/mL
[1]; [3]
  MIC: > 64 µg/mL
[1]; Strain 31, Cip, Clin, Fox, Gm
  MIC: > 64 µg/mL
[1]; [4]
  MIC: > 64 µg/mL
[1]; Strain 33, Cip, Clin, Gm
  MIC: > 64 µg/mL
[1]; Strain 34, Cip, Clin, Gm
  MIC: > 64 µg/mL
[1]; Strain 35, Cip, Clin, Gm
  MIC: > 64 µg/mL
[1]; Strain 36, Cip, Clin, Fos
  MIC: > 64 µg/mL
[1]; Strain 37, Cip, Clin, Fos, Gm
  MIC: 64 µg/mL (≈ 87.2 µM)
[1]; Strain 38, Cip, Gm
  MIC: > 64 µg/mL
[1]; Strain 39, Cip, Clin, Fos, Gm
  MIC: 64 µg/mL (≈ 87.2 µM)
[1]; Strain 40, Cip, Clin, Gm
  MIC: > 64 µg/mL
[1]; Strain 41, Cip, Clin
  MIC: > 64 µg/mL
[1]; Strain 42, Cip, Clin, Gm
  MIC: > 64 µg/mL
[1]; Strain 43, Cip, Clin, Gm
  MIC: > 64 µg/mL
[1]; [5]
  MIC: > 64 µg/mL
[1]; [6]
  MIC: > 64 µg/mL
[1]; Strain 46, Clin, Fos
  MIC: > 64 µg/mL
[1]; Strain 47, Cip, Clin, Gm
  MIC: > 64 µg/mL
[1]; Strain 48, Cip, Clin
  MIC: > 64 µg/mL
[1]; Strain 49, Cip, Gm
  MIC: > 64 µg/mL
[1]; [7]
  MIC: > 64 µg/mL
[1]; S. aureus (50) Met-R, read-out: MIC 50%
  MIC50: > 64 µg/mL
[1]; S. aureus (50) Met-R, read-out: MIC 90%
  MIC90: > 64 µg/mL
[2]; [8]
  MIC: > 64 µg/mL
[2]; Strain 52 VISA
  MIC: >64 µg/mL
[2]; VISA (2) Met-R
  MIC Range: >64 mg/L

## COc1cccc(OC)c1C(=O)N[C@@H]1C(=O)N2[C@@H]1SC(C)(C)[C@@H]2C(=O)O [Meth, methicilline]
[1]; Strain 1, Cip, Clin, Gm
  MIC: > 64 µg/mL
[1]; Strain 2, Clin, Fos
  MIC: > 64 µg/mL
[1]; Strain 3, Cip, Clin, Gm
  MIC: > 64 µg/mL
[1]; Strain 4, Cip, Gm
  MIC: > 64 µg/mL
[1]; Strain 5, Cip, Clin
  MIC: > 64 µg/mL
[1]; Strain 6, Clin, Gm
  MIC: > 64 µg/mL
[1]; Strain 7, Cip, Gm
  MIC: 32 µg/mL (≈ 84.1 µM)
[1]; Strain 8, Cip, Clin
  MIC: > 64 µg/mL
[1]; Strain 9, Cip, Clin, Gm
  MIC: > 64 µg/mL
[1]; Strain 10, Cip, Clin, Gm
  MIC: > 64 µg/mL
[1]; Strain 11, Clin, Rif
  MIC: > 64 µg/mL
[1]; Strain 12, Cip, Clin
  MIC: > 64 µg/mL
[1]; Strain 13, Cip, Clin
  MIC: > 64 µg/mL
[1]; Strain 14, Clin, Cip
  MIC: > 64 µg/mL
[1]; Strain 15, Cip, Clin, Gm
  MIC: > 64 µg/mL
[1]; Strain 16, Cip, Clin
  MIC: > 64 µg/mL
[1]; Strain 17, Cip, Clin
  MIC: 64 µg/mL (≈ 168 µM)
[1]; Strain 18, Cip, Clin, Gm
  MIC: > 64 µg/mL
[1]; Strain 19, Cip, Clin, Gm
  MIC: > 64 µg/mL
[1]; Strain 20, Cip, Clin, Gm
  MIC: > 64 µg/mL
[1]; Strain 21, Cip, Clin, Gm
  MIC: > 64 µg/mL
[1]; Strain 22, Cip, Clin
  MIC: > 64 µg/mL
[1]; Strain 23, Cip, Clin, Gm
  MIC: > 64 µg/mL
[1]; Strain 24, Cip, Clin, Gm
  MIC: > 64 µg/mL
[1]; Strain 25, Cip, Clin, Gm
  MIC: > 64 µg/mL
[1]; Strain 26, Cip, Clin, Fos, Gm
  MIC: > 64 µg/mL
[1]; Strain 27, Cip, Clin, Fos, Gm
  MIC: > 64 µg/mL
[1]; Strain 28, Cip, Clin, Gm
  MIC: > 64 µg/mL
[1]; Strain 29, Clin, Fos
  MIC: > 64 µg/mL
[1]; [3]
  MIC: 64 µg/mL (≈ 168 µM)
[1]; Strain 31, Cip, Clin, Fox, Gm
  MIC: > 64 µg/mL
[1]; [4]
  MIC: > 64 µg/mL
[1]; Strain 33, Cip, Clin, Gm
  MIC: > 64 µg/mL
[1]; Strain 34, Cip, Clin, Gm
  MIC: > 64 µg/mL
[1]; Strain 35, Cip, Clin, Gm
  MIC: > 64 µg/mL
[1]; Strain 36, Cip, Clin, Fos
  MIC: > 64 µg/mL
[1]; Strain 37, Cip, Clin, Fos, Gm
  MIC: 64 µg/mL (≈ 168 µM)
[1]; Strain 38, Cip, Gm
  MIC: > 64 µg/mL
[1]; Strain 39, Cip, Clin, Fos, Gm
  MIC: 64 µg/mL (≈ 168 µM)
[1]; Strain 40, Cip, Clin, Gm
  MIC: > 64 µg/mL
[1]; Strain 41, Cip, Clin
  MIC: > 64 µg/mL
[1]; Strain 42, Cip, Clin, Gm
  MIC: > 64 µg/mL
[1]; Strain 43, Cip, Clin, Gm
  MIC: > 64 µg/mL
[1]; [5]
  MIC: 64 µg/mL (≈ 168 µM)
[1]; [6]
  MIC: > 64 µg/mL
[1]; Strain 46, Clin, Fos
  MIC: > 64 µg/mL
[1]; Strain 47, Cip, Clin, Gm
  MIC: > 64 µg/mL
[1]; Strain 48, Cip, Clin
  MIC: 64 µg/mL (≈ 168 µM)
[1]; Strain 49, Cip, Gm
  MIC: > 64 µg/mL
[1]; [7]
  MIC: > 64 µg/mL
[2]; [8]
  MIC: > 64 µg/mL
[2]; Strain 52 VISA
  MIC: >64 µg/mL
